Data: patent US12195427B2, “MASP-2 inhibitors and methods of use” (priority 2018, dated 2025)

Molecular target: MASP-2 CCP2-SP (Homo sapiens (Human), UniProt O00187)
Assay: MASP-2 co-crystallization, X-ray crystallography and structure analysis (H-bonds, van der Waals contacts);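 for Ligand-pharmacophore element distance, pharmacophore element C2: distance from averaged pharmacophore element to bound ligand; missing value means element absent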;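 for Ligand-pharmacophore element distance, pharmacophore element C3: distance from averaged pharmacophore element to bound ligand; missing value means element absent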;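 for Ligand-pharmacophore element distance, pharmacophore element C4: distance from averaged pharmacophore element to bound ligand; missing value means element absent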;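 for Ligand-pharmacophore element distance, pharmacophore element C5: distance from averaged pharmacophore element to bound ligand; missing value means element absent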
Set-up: van der Waals contact distance, MASP-2 HIS 483 atom CD2 / van der Waals contact distance, MASP-2 HIS 483 atom NE2 / van der Waals contact distance, SER 654 C to compound atom / van der Waals contact distance, SER 654 O to compound atom / van der Waals contact distance, TRP 655 C to compound atom / van der Waals contact distance, MASP-2 GLY 528 atom CA / van der Waals contact distance TRP 655 atom CZ3 / van der Waals contact distance TRP 655 atom N / van der Waals contact distance TRP 655 atom CE3 / van der Waals contact distance GLY 656 atom C / van der Waals contact distance GLY 656 atom CA / van der Waals contact distance GLY 656 atom O / van der Waals contact distance, MASP-2 TYR 607 atom CD1 / van der Waals contact distance, MASP-2 PRO 606 atom O / d(C3,CA1) / d(CA1,N1)2 / d(H4,O1) / d(H4,O2) / d(O1,O2) / d(CA1,O2) / d(CA6,O1) / d(CA6,O2) / d(CA1,C5) / d(O2,H3) / d(N2,C2) / d(CA5,N2) / d(N2,C4) / d(N2,C6) / d(N2,CA3) / d(N2,O3) / d(O4,H2): unit not given beside the values
Conditions: Table A4-1; element C2
Source text: This example illustrates the preparation of recombinant MASP-2 protein, based on UniProt O00187, human mannan-binding lectin serine protease 2. Expression constructs for human MASP-2 CCP2-SP and CCP2-SP-6HIS were generated for recombinant expression in E. coli cells.
Typically, crystallization hits were obtained by screening against […] 96-well crystallization reagent kits (GRAS6, GRAS2, Hampton Research; MORPHEUS, Molecular Dimensions; Wizard 1&2 Cryo, Rigaku Reagents) and crystal growth was inspected by optical microscopy. Crystals were used directly or further optimized for X-ray diffraction. Crystals were captured with cryogenic loops and dipped into liquid nitrogen directly or cryoprotected with a 20% glycerol in crystallization formulation before flash-cooling in liquid nitrogen.
Thereafter crystals are transferred once or twice for soaking within the crystallization solution containing the MASP-2 inhibitor.
Crystals were diffracted with synchrotron X-rays of […] and X-ray diffraction datasets were collected at beamlines SSRL BL9-2, BL14-1, BL12-2 as well as ALS sector 5 using Dectris Pilatus and Eiger detectors. Structures were determined by molecular replacement using portions of the structure 1Q3X as search models and partially refined with Buster 2.10.2 or Refmac 5.8. […] When multiple ligand poses were observed, for instance arising from multiple molecules in the asymmetric unit or refined dual poses within the same molecule, only one pose was selected and analyzed.
LigPlot+ calls these ‘nonbonded contacts’ or ‘hydrophobic contacts’. Despite the name, there are atom pairings that include possible H-bonds. Thus, in some instances, the Table A2 also contains H-bond interactions.

MASP-2 CCP2-SP, sequence (O00187 445-686): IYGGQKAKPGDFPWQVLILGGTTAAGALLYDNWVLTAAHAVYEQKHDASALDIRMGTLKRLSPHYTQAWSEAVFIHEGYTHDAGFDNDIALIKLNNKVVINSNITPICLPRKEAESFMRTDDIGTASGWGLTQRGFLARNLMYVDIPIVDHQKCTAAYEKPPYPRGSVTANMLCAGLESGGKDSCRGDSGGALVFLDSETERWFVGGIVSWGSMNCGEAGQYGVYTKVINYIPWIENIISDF
MASP-2 CCP2-SP, sequence (O00187 364-432 partner): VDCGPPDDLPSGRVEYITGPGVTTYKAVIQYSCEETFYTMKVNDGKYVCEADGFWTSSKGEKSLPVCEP

| Compound | Ligand-pharmacophore element distance, pharmacophore element C2 |
| --- | --- |
| C[C@H](NC(=O)[C@H]1C[C@@H](c2ccccc2)CCN1)C(=O)NCc1cc(Cl)ccc1O.Cl [1078_14] | 0.74 |
| C[C@H](NC(=O)[C@H]1C[C@@H](c2ccccc2)CCN1)C(=O)NCc1cc(Cl)ccc1O.Cl [1078_15] | 0.81 |

Same assay, conditions: Table A4-1; element C3

| Compound | Ligand-pharmacophore element distance, pharmacophore element C3 |
| --- | --- |
| C[C@H](NC(=O)[C@H]1C[C@@H](c2ccccc2)CCN1)C(=O)NCc1cc(Cl)ccc1O.Cl [1078_14] | 0 |
| C[C@H](NC(=O)[C@H]1C[C@@H](c2ccccc2)CCN1)C(=O)NCc1cc(Cl)ccc1O.Cl [1078_15] | 0 |

Same assay, conditions: Table A4-1; element C4

| Compound | Ligand-pharmacophore element distance, pharmacophore element C4 |
| --- | --- |
| C[C@H](NC(=O)[C@H]1C[C@@H](c2ccccc2)CCN1)C(=O)NCc1cc(Cl)ccc1O.Cl [1078_14] | 0 |
| C[C@H](NC(=O)[C@H]1C[C@@H](c2ccccc2)CCN1)C(=O)NCc1cc(Cl)ccc1O.Cl [1078_15] | 0 |

Same assay, conditions: Table A4-1; element C5

| Compound | Ligand-pharmacophore element distance, pharmacophore element C5 |
| --- | --- |
| C[C@H](NC(=O)[C@H]1C[C@@H](c2ccccc2)CCN1)C(=O)NCc1cc(Cl)ccc1O.Cl [1078_14] | 0.47 |
| C[C@H](NC(=O)[C@H]1C[C@@H](c2ccccc2)CCN1)C(=O)NCc1cc(Cl)ccc1O.Cl [1078_15] | 0.43 |

Same assay, conditions: Table A4-1; element C6

| Compound | Ligand-pharmacophore element distance, pharmacophore element C6 |
| --- | --- |
| C[C@H](NC(=O)[C@H]1C[C@@H](c2ccccc2)CCN1)C(=O)NCc1cc(Cl)ccc1O.Cl [1078_14] | 0 |
| C[C@H](NC(=O)[C@H]1C[C@@H](c2ccccc2)CCN1)C(=O)NCc1cc(Cl)ccc1O.Cl [1078_15] | 0 |

Same assay, conditions: Table A4-1; element C7

| Compound | Ligand-pharmacophore element distance, pharmacophore element C7 |
| --- | --- |
| C[C@H](NC(=O)[C@H]1C[C@@H](c2ccccc2)CCN1)C(=O)NCc1cc(Cl)ccc1O.Cl [1078_14] | 0 |
| C[C@H](NC(=O)[C@H]1C[C@@H](c2ccccc2)CCN1)C(=O)NCc1cc(Cl)ccc1O.Cl [1078_15] | 0 |

Same assay, conditions: Table A4-1; element CA1

| Compound | Ligand-pharmacophore element distance, pharmacophore element CA1 |
| --- | --- |
| C[C@H](NC(=O)[C@H]1C[C@@H](c2ccccc2)CCN1)C(=O)NCc1cc(Cl)ccc1O.Cl [1078_14] | 1.61 |
| C[C@H](NC(=O)[C@H]1C[C@@H](c2ccccc2)CCN1)C(=O)NCc1cc(Cl)ccc1O.Cl [1078_15] | 1.56 |

Same assay, conditions: Table A4-1; element CA2

| Compound | Ligand-pharmacophore element distance, pharmacophore element CA2 |
| --- | --- |
| C[C@H](NC(=O)[C@H]1C[C@@H](c2ccccc2)CCN1)C(=O)NCc1cc(Cl)ccc1O.Cl [1078_14] | 0.8 |
| C[C@H](NC(=O)[C@H]1C[C@@H](c2ccccc2)CCN1)C(=O)NCc1cc(Cl)ccc1O.Cl [1078_15] | 0.65 |

Same assay, conditions: Table A4-1; element CA3

| Compound | Ligand-pharmacophore element distance, pharmacophore element CA3 |
| --- | --- |
| C[C@H](NC(=O)[C@H]1C[C@@H](c2ccccc2)CCN1)C(=O)NCc1cc(Cl)ccc1O.Cl [1078_14] | 0 |
| C[C@H](NC(=O)[C@H]1C[C@@H](c2ccccc2)CCN1)C(=O)NCc1cc(Cl)ccc1O.Cl [1078_15] | 0 |

Same assay, conditions: Table A4-1; element CA4

| Compound | Ligand-pharmacophore element distance, pharmacophore element CA4 |
| --- | --- |
| C[C@H](NC(=O)[C@H]1C[C@@H](c2ccccc2)CCN1)C(=O)NCc1cc(Cl)ccc1O.Cl [1078_14] | 0 |
| C[C@H](NC(=O)[C@H]1C[C@@H](c2ccccc2)CCN1)C(=O)NCc1cc(Cl)ccc1O.Cl [1078_15] | 0 |

Same assay, conditions: Table A4-1; element CA5

| Compound | Ligand-pharmacophore element distance, pharmacophore element CA5 |
| --- | --- |
| C[C@H](NC(=O)[C@H]1C[C@@H](c2ccccc2)CCN1)C(=O)NCc1cc(Cl)ccc1O.Cl [1078_14] | 0 |
| C[C@H](NC(=O)[C@H]1C[C@@H](c2ccccc2)CCN1)C(=O)NCc1cc(Cl)ccc1O.Cl [1078_15] | 0 |

Same assay, conditions: Table A4-1; element CA6

| Compound | Ligand-pharmacophore element distance, pharmacophore element CA6 |
| --- | --- |
| C[C@H](NC(=O)[C@H]1C[C@@H](c2ccccc2)CCN1)C(=O)NCc1cc(Cl)ccc1O.Cl [1078_14] | 0 |
| C[C@H](NC(=O)[C@H]1C[C@@H](c2ccccc2)CCN1)C(=O)NCc1cc(Cl)ccc1O.Cl [1078_15] | 0 |

Same assay, conditions: Table A5-1 pharmacophore: distance between elements, S2/S1 region

| Compound | d(CA1,C5) | d(CA1,O1) | d(CA1,O2) | d(CA1,O4) | d(H4,O1) | d(H4,O2) | d(O1,O2) | d(O4,H2) |
| --- | --- | --- | --- | --- | --- | --- | --- | --- |
| C[C@H](NC(=O)[C@H]1C[C@@H](c2ccccc2)CCN1)C(=O)NCc1cc(Cl)ccc1O.Cl [1078_14] | 3.13 | 4.46 | 4.47 | 2.75 | 2.48 | 2.59 | 2.91 | 0.97 |
| C[C@H](NC(=O)[C@H]1C[C@@H](c2ccccc2)CCN1)C(=O)NCc1cc(Cl)ccc1O.Cl [1078_15] | 3.13 | 4.59 | 4.59 | 2.74 | 2.66 | 2.49 | 2.93 | 0.97 |

Same assay, conditions: Table A5-2 pharmacophore distance, S3/S4 region

| Compound | d(N2,C2) | d(N2,CA2) | d(O2,H3) | d(O2,N2) |
| --- | --- | --- | --- | --- |
| C[C@H](NC(=O)[C@H]1C[C@@H](c2ccccc2)CCN1)C(=O)NCc1cc(Cl)ccc1O.Cl [1078_14] | 1.45 | 5.69 | 2.58 | 2.77 |
| C[C@H](NC(=O)[C@H]1C[C@@H](c2ccccc2)CCN1)C(=O)NCc1cc(Cl)ccc1O.Cl [1078_15] | 1.45 | 5.66 | 2.97 | 2.84 |

Same assay, conditions: Table A6-1 pharmacophore angle

| Compound | a(C5, CA1, O1) | a(CA1, O1, O2) | a(CA1, O4, H2) | a(O1, CA1, O4) | a(O1, O2, H4) |
| --- | --- | --- | --- | --- | --- |
| C[C@H](NC(=O)[C@H]1C[C@@H](c2ccccc2)CCN1)C(=O)NCc1cc(Cl)ccc1O.Cl [1078_14] | 159.36 | 109.29 | 126.58 | 70.42 | 109.80 |
| C[C@H](NC(=O)[C@H]1C[C@@H](c2ccccc2)CCN1)C(=O)NCc1cc(Cl)ccc1O.Cl [1078_15] | 160.41 | 108.62 | 127.31 | 65.89 | 110.90 |

Same assay, conditions: Table A6-2 pharmacophore angle

| Compound | a(O1, O2, H3) | a(O1, O2, N2) | a(O2, N2, C2) | a(O2, N2, CA2) |
| --- | --- | --- | --- | --- |
| C[C@H](NC(=O)[C@H]1C[C@@H](c2ccccc2)CCN1)C(=O)NCc1cc(Cl)ccc1O.Cl [1078_14] | 144.55 | 148.03 | 129.57 | 155.65 |
| C[C@H](NC(=O)[C@H]1C[C@@H](c2ccccc2)CCN1)C(=O)NCc1cc(Cl)ccc1O.Cl [1078_15] | 143.22 | 147.42 | 124.17 | 155.02 |

Same assay, conditions: Table A7-1; between pharmacophore elements of the bound compound

| Compound | Pharmacophore torsion angle a(C5, CA1, O1, H4) | Pharmacophore torsion angle a(H4, O1, O2, H3) | Pharmacophore torsion angle a(H4, O1, O2, N2) | Pharmacophore torsion angle a(O1, H4, O2, CA1) | Pharmacophore torsion angle a(O1, O2, N2, C2) | Pharmacophore torsion angle a(O1, O2, N2, C2)2 |
| --- | --- | --- | --- | --- | --- | --- |
| C[C@H](NC(=O)[C@H]1C[C@@H](c2ccccc2)CCN1)C(=O)NCc1cc(Cl)ccc1O.Cl [1078_14] | 20.44 | −134.39 | −121.21 | −62.09 | 126.74 |  |
| C[C@H](NC(=O)[C@H]1C[C@@H](c2ccccc2)CCN1)C(=O)NCc1cc(Cl)ccc1O.Cl [1078_15] | 19.98 | −124.63 | −117.88 | −64.96 | 139.14 | 139.34 |

Same assay, conditions: Table A7-2; between pharmacophore elements of the bound compound

| Compound | Pharmacophore torsion angle a(O1, O2, N2, CA2) |
| --- | --- |
| C[C@H](NC(=O)[C@H]1C[C@@H](c2ccccc2)CCN1)C(=O)NCc1cc(Cl)ccc1O.Cl [1078_14] | 134.23 |
| C[C@H](NC(=O)[C@H]1C[C@@H](c2ccccc2)CCN1)C(=O)NCc1cc(Cl)ccc1O.Cl [1078_15] | 141.63 |
